Test results as given in publication PMC5869871 (Investigational New Drugs, 2017).
Read-outs that look alike come from different tables or passages of the source. Marks after values point to notes of the source that are not given here.

Assays:
[1] = Study 1 safety assessment (adverse events, laboratory results, vital signs, ECG); type: in vivo, human
Protocol: Safety was evaluated based on the incidence of adverse events, and changes from baseline in vital signs, ECGs, weight and clinical laboratory results and ECOG status.

[2] = Study 2 safety assessment (adverse events, laboratory results, vital signs, ECG); type: in vivo, human
Protocol: (§1) Study 2 was a phase 1, open-label study in patients with advanced solid tumors or relapsed/refractory lymphomas.
(§2) Patients also received oral solution doses of 200 mg itraconazole QD on Days 5 through 13. […] Itraconazole was administered in the study center on Days 5, and 10 through 13 with the remaining doses being administered at home by the patients.

[3] = cited from earlier work
[4] = cited from earlier work; remark: listed apart in the source
CYP3A4 = test system: CYP3A4; parameters: method as in Takeda data on file; conditions: ref Takeda data on file; cited from earlier work
[5] = Study 2: single-dose plasma pharmacokinetics of alisertib, M1 and M2 with and without itraconazole; conditions: for t1/2 / Tmax / half-life: single 30 mg alisertib ECT; for t1/2 / half-life: arithmetic mean (SD); for Tmax: median (minimum, maximum); for half-life: t1/2, Study 2
Protocol: as §1, §2
(§3) [1, 2] […] The quantitation range for the M1 assay was 2.00 to 1000 ng/mL, the assay precision ranged from 3.0 to 4.1% and the mean accuracy ranged from −1.5 to 0.3%. The quantitation range for the M2 assay was 2.00 to 1000 ng/mL, the assay precision ranged from 3.0 to 4.3% and the mean accuracy ranged from −1.1 to 0.7%.
(§4) Pharmacokinetic parameters were estimated where data permitted using non-compartmental analysis with Phoenix™ WinNonlin® Version 6.3 (Pharsight Corporation, Mountain View, CA, USA). […] The AUC parameters were estimated using the linear-log trapezoidal rule.
(§5) The analyses utilized a fixed-sequence repeated measures mixed-effects linear model. All inferences were based on least squares (LS) means estimated from this model. All statistical analyses were conducted using SAS version 9.2 (SAS Institute, NC, USA).

[6] = Study 1: single-dose plasma pharmacokinetics of alisertib, M1 and M2 with and without esomeprazole or rifampin; conditions: for t1/2 / half-life: arithmetic mean (SD); for AUC(0-inf): AUC0-inf; for AUC(0-t): AUC0-last
Protocol: (§6) Study 1 was a phase 1, open-label, fixed sequence, 2-cycle study in patients with advanced solid tumors or lymphomas.
(§7) In Cycle 2, patients also received single daily doses of either esomeprazole (40 mg QD delayed-release capsules) or rifampin (600 mg once daily [QD]) on Days 1 through 10.
(§8) Patients attended the study center on the day prior to the first dose (Day −1) for baseline assessments and returned on each of Days 1 to 4 of Cycle 1 and Days 8 to 11 of Cycle 2 for study assessments.
(§9) The quantitation range for the M1 assay was 2.00 to 1000 ng/mL, the assay precision ranged from 3.0 to 4.1% and the mean accuracy ranged from −1.5 to 0.3%. The quantitation range for the M2 assay was 2.00 to 1000 ng/mL, the assay precision ranged from 3.0 to 4.3% and the mean accuracy ranged from −1.1 to 0.7%. The same assays were used in Study 2, with similar values for assay precision and accuracy.
as §4
(§10) The analyses utilized a fixed-sequence repeated measures mixed-effects linear model. All inferences were based on least squares (LS) means estimated from this model. All statistical analyses were conducted using SAS version 9.2 (SAS Institute, NC, USA). The sample size for both studies was based on the expected 90% CIs for the ratio of geometric mean AUCs. For Study 1, the within-patient CV was estimated to be 39.4% based on prior clinical PK data in cancer patients. […] For Study 2, the within-patient CV was estimated to be 31% based on more recent clinical PK data and a sample size of 16 patients was expected to provide 90% CIs of 0.83X, 1.21X.

[7] = human, in vivo; for mean t1/2 / median Tmax: 50 mg
Protocol: as §6, §7, §8, §9, §4, §10

[8] = in vivo; for AUC0-last / AUC(0-inf) / Cmax / Tmax / t1/2: human, 30 mg
Protocol: as §1, §2, §3, §4, §5

[9] = Study 2, absence of itraconazole
[10] = human, plasma, oral, 50 mg, Study 1 esomeprazole arm, single 50 mg alisertib ECT, absence of esomeprazole, geometric mean (%CV)
[11] = human, plasma, oral, 50 mg, Study 1 rifampin arm, single 50 mg alisertib ECT, absence of rifampin, geometric mean (%CV)
[12] = human, plasma, oral, Study 1 esomeprazole arm, single 50 mg alisertib ECT, presence of esomeprazole 40 mg QD, geometric mean (%CV)
[13] = human, plasma, oral, Study 1 rifampin arm, single 50 mg alisertib ECT, presence of rifampin 600 mg QD, geometric mean (%CV)

COc1cc(Nc2ncc3c(n2)-c2ccc(Cl)cc2C(c2c(F)cccc2OC)=NC3)ccc1C(=O)O [Alisertib]
patients who died during the study ([1]; Study 1, none deemed related to study treatment): Four
Alopecia, treatment-related ([1]; human, in vivo): 17 (31) n (%)
Anaemia, treatment-related ([1]; human, in vivo): 10 (18) n (%)
Decreased appetite, treatment-related ([1]; human, in vivo): 8 (15) n (%)
Dehydration, treatment-related ([1]; human, in vivo): 6 (11) n (%)
Diarrhea, treatment-related ([1]; human, in vivo): 18 (33) n (%)
Fatigue, treatment-related ([1]; human, in vivo): 14 (25) n (%)
Leukopenia, treatment-related ([1]; human, in vivo): 7 (13) n (%)
Nausea, treatment-related ([1]; human, in vivo): 10 (18) n (%)
Neutropenia, treatment-related ([1]; human, in vivo): 17 (31) n (%)
Stomatitis, treatment-related ([1]; human, in vivo): 14 (25) n (%)
Thrombocytopenia, treatment-related ([1]; human, in vivo): 7 (13) n (%)
Vomiting, treatment-related ([1]; human, in vivo): 8 (15) n (%)
patients with at least 1 adverse event ([1]; human, in vivo): 52 (95%) patients
treatment-related serious adverse events nausea and vomiting (each) ([1]; human, in vivo): 2 patients
leukocytes and neutrophils over the course of the study ([1]; in vivo): decreases were observed
patients with other serious adverse events considered treatment related ([1]; in vivo): Five
vital signs or ECG findings ([1]; in vivo): no notable trends
leukocytes and neutrophils over the course of the study [2]: decreases were observed
vital signs or ECG findings [2]: no notable trends
aqueous solubility ([3]; at acidic pH): low
pKa ([3]; free acid): 4.53
apparent oral clearance [4]: 4.25 L/h
CYP3A4-mediated metabolism as share of alisertib total clearance (estimated) (CYP3A4): approximately 60%
t1/2 [5, 9]: 22.6 (10.3)^k h
Tmax [5, 9]: 2.9 (1.1, 10) h
t1/2 ([5]; Study 2, presence of itraconazole 200 mg QD): 25.4 (9.2)^l h
change in Cmax in the presence of itraconazole ([5]; Study 2, single 30 mg alisertib, itraconazole 200 mg QD versus alone): did not alter
AUC(0-inf) ([5]; human, plasma, oral, 30 mg): 14.8 µM·h
AUC(0-t) ([5]; human, plasma, oral, 30 mg): 13.5 µM·h
Cmax ([5]; human, plasma, oral, 30 mg): 986 nM
Tmax ([5]; human, plasma, oral, 30 mg, Tmax, Study 2, absence of itraconazole): ~3 h
half-life ([5]; human, plasma, oral, 30 mg, absence of itraconazole): ~23 h
Tmax ([5]; human, plasma, oral, Tmax, Study 2, presence of itraconazole 200 mg QD): 2.9 h
half-life ([5]; human, plasma, oral, presence of itraconazole 200 mg QD): ~25 h
increase in alisertib AUCinf (systemic exposure) by esomeprazole ([6]; Study 1, single 50 mg alisertib, esomeprazole 40 mg QD): 28%
decrease in alisertib AUCinf (AUC) by rifampin ([6]; Study 1, single 50 mg alisertib, rifampin 600 mg QD): approximately 50%
change in Cmax in the presence of rifampin ([6]; Study 1, single 50 mg alisertib, rifampin 600 mg QD versus alone, metabolites not statistically compared): did not alter
t1/2 ([6]; Study 1 esomeprazole arm, single 50 mg alisertib ECT, absence of esomeprazole): 16.1 (5.4)^b h
Tmax ([6]; Study 1 esomeprazole arm, single 50 mg alisertib ECT, presence of esomeprazole 40 mg QD, median (minimum, maximum)): 3 (1, 8) h
t1/2 ([6]; Study 1 rifampin arm, single 50 mg alisertib ECT, absence of rifampin): 16.3 (6.6)^h
AUC0-last ([6]; Study 1 rifampin arm, single 50 mg alisertib ECT, absence of rifampin, plasma, geometric mean (%CV)): 17,936 (43%) nM*h
t1/2 ([6]; Study 1 rifampin arm, single 50 mg alisertib ECT, presence of rifampin 600 mg QD): 8.2 (5.5)^i h
Tmax ([6]; Study 1 rifampin arm, single 50 mg alisertib ECT, presence of rifampin 600 mg QD, median (minimum, maximum)): 2.1 (1, 6) h
AUC(0-inf) [6, 10]: 20.3 µM·h
AUC(0-inf) [6, 11]: 16.2 µM·h
AUC(0-t) [6, 10]: 19.6 µM·h
Cmax [6, 10]: 1500 nM
Cmax [6, 11]: 1450 nM
Tmax ([6]; human, plasma, oral, 50 mg, Tmax, Study 1 esomeprazole arm, single 50 mg alisertib ECT, absence of esomeprazole, median (minimum, maximum)): 4 h
Tmax ([6]; human, plasma, oral, 50 mg, Tmax, Study 1 rifampin arm, single 50 mg alisertib ECT, absence of rifampin, median (minimum, maximum)): 4 h
Tmax ([6]; human, plasma, oral, 50 mg, median Tmax, Study 1, both treatment arms, 50 mg alisertib administered alone): 3 to 4 h
half-life ([6]; human, plasma, oral, 50 mg, t1/2, Study 1 esomeprazole arm, single 50 mg alisertib ECT, absence of esomeprazole): ~16 h
half-life ([6]; human, plasma, oral, 50 mg, t1/2, Study 1 rifampin arm, single 50 mg alisertib ECT, absence of rifampin): ~16 h
AUC(0-inf) [6, 12]: 25.9 µM·h
AUC(0-inf) [6, 13]: 8.65 µM·h
AUC(0-t) [6, 12]: 24.5 µM·h
AUC(0-t) [6, 13]: 9.06 µM·h
Cmax [6, 12]: 1720 nM
Tmax ([6]; human, plasma, oral, Tmax, Study 1 rifampin arm, single 50 mg alisertib ECT, presence of rifampin 600 mg QD, median (minimum, maximum)): ~2 h
half-life ([6]; human, plasma, oral, t1/2, Study 1 esomeprazole arm, single 50 mg alisertib ECT, presence of esomeprazole 40 mg QD): ~16 h
half-life ([6]; human, plasma, oral, t1/2, Study 1 rifampin arm, single 50 mg alisertib ECT, presence of rifampin 600 mg QD): ~8 h

COc1cc(Nc2ncc3c(n2)-c2ccc(Cl)cc2C(c2c(F)cccc2OC)=NC3)ccc1C(=O)O[C@@H]1O[C@H](C(=O)O)[C@@H](O)[C@H](O)[C@H]1O [M1, alisertib acylglurcuronide]
mean t1/2 [7]: 15 to 18 h
median Tmax [7]: 4 h
AUC0-last [8]: 4962 (164%) nM*h
AUC(0-inf) [8]: 5758 (174%)^d nM*h
Cmax [8]: 287 nM
Tmax [8]: 3.1 (1, 23) h
t1/2 [8]: 23.0 (11.2)^h

COc1cc(Nc2ncc3c(n2)-c2ccc(Cl)cc2C(c2c(O)cccc2F)=NC3)ccc1C(=O)O [M2, O-desmethyl alisertib]
mean t1/2 [7]: 19.1 to 22 h
median Tmax [7]: 10 h
change in mean AUC0-inf in the presence of rifampin ([7]; 600 mg): increased
change in mean t1/2 in the presence of rifampin ([7]; 600 mg): decreased
AUC0-last [8]: 4977 (58%) nM*h
AUC(0-inf) [8]: 4926 (41%)^i nM*h
Cmax [8]: 100 nM
Tmax [8]: 9.4 (3.0, 48) h
t1/2 [8]: 28 (9.2)^i h
systemic exposure metabolite/parent ratio following multiple dose itraconazole [8]: decreased
